Test results taken from patent US20120129834A1, “SEROTONIN RECEPTOR ANTAGONISTS FOR USE IN THE TREATMENT OF HUNTINGTON'S DISEASE” (BUCK INSTITUTE FOR RESEARCH ON AGING, priority 2010, published 2012).
Entries after “also recorded” stand apart in the source; their conditions may differ.

Tests used:
STHdh111Q/111Q cells = experiment: viability (ATP) assay of cell death in serum deprived STHdh111Q/111Q cells (Prestwick library screen and dose/response); format: cell-based; conditions: for loss of viability (ATP levels): dose/response, STHdh111Q/111Q serum deprivation model, FIG. 17 upper panel, n=3/dose; for huntingtin-mediated cell death: screen of the Prestwick Chemical library, cell-based assay of mutant huntingtin-mediated cell death
Experimental: Viability as measured by ATP levels (normalized to cell number) in cells after 24 h of serum deprivation. Data are show as percent DMSO control (100%). […]
(§1) This library is composed of 1,200 marketed drugs with favorable safety, bioavailability and efficacy properties.

caspase-3/7 = experiment: caspase activation assay, STHdh111Q/111Q serum deprivation model; format: cell-based; conditions: dose/response, FIG. 17 lower panel, n=3/dose
R6/2 mouse model of HD [1] = experiment: rotarod performance of R6/2 HD mice; format: in vivo; conditions: for rotarod performance / rotarod deficit: at 9 weeks of age, 10 mg/kg
R6/2 mouse model of HD [2] = experiment: lifespan of R6/2 mice; format: in vivo; conditions: 10 mg/kg IP daily, treatment groups compared
Description: This may reflect a specific mechanism of action for pizotifen.

[3] = weight loss in the mouse model; format: in vivo; conditions: 7.5 mg/kg, FIG. 21
R6/2 mouse model of HD [4] = experiment: open field behavior analysis in R6/2 mice; format: in vivo; conditions: treated vs control
Description: as §1

DARPP-32 = DARPP-32 expression as measure of disease progression; format: in vivo; conditions: mouse model of HD, FIG. 24 panels A-C
ERK pathway = experiment: activation of the ERK pathway in vivo (striatum, cortex); design: species or system mouse; conditions: FIG. 23

Compound | loss of viability (ATP levels) (STHdh111Q/111Q cells) | huntingtin-mediated cell death (STHdh111Q/111Q cells) | caspase-3/7 activation (caspase-3/7) | dose dependence of correction of rotarod (R6/2 mouse model of HD [1]; FIG. 20) | rotarod performance (R6/2 mouse model of HD [1]; R6/2 mice, 10 mg/kg IP daily from 5 weeks of age, after one week of treatment) | rotarod performance / rotarod deficit (R6/2 mouse model of HD [1]; R6/2 mice, 10 mg/kg IP daily from 5 weeks of age) | rotarod performance / rotarod deficit (R6/2 mouse model of HD [1]; R6/2 mice, 10 mg/kg IP daily from 5 weeks of age, listed as pizotifin) | rotarod performance (R6/2 mouse model of HD [1]; R6/2 mice, 10 mg/kg IP daily, 6-week old group, after three days of treatment) | motor deficits (Rotarod performance) (R6/2 mouse model of HD [1]; R6/2 mice, two independent studies) | lifespan (R6/2 mouse model of HD [2]) | weight loss [3] | open field, general activity level (R6/2 mouse model of HD [4]) | open field, general activity level (R6/2 mouse model of HD [4]; listed as pizotifen) | DARPP-32 decrease (measure of disease progression) (DARPP-32) | activation of the ERK pathway in cortex (ERK pathway; cortex) | activation of the ERK pathway in striatum (ERK pathway; striatum)
CN1CCC(=C2c3ccccc3C=Cc3ccccc32)CC1.Cl [Cyproheptadine, 4-(5H-dibenzo[a,d]cyclohepten-5-ylidene)-1-methylpiperidine hydrochloride] | rescue loss of viability | reproducibly suppress huntingtin-mediated cell death in a dose-dependent manner |  |  |  |  |  |  |  |  |  |  |  |  |  | 
CN1CCN(C2=Nc3ccccc3Oc3ccc(Cl)cc32)CC1 [Loxapine, 2-Chloro-11-(4-methylpiperazin-1-yl)dibenzo[b,f][1,4]oxazepine] | rescue loss of viability | reproducibly suppress huntingtin-mediated cell death in a dose-dependent manner | rescue |  |  |  |  |  |  |  |  |  |  |  |  | 
CN1CCC(=C2c3ccccc3CCc3sccc32)CC1 [Pizotifen, 4-(1-methyl-4-piperidylidine)-9,10-dihydro-4H-benzo-[4,5]cyclohepta[1,2]-thiophene] | rescue loss of viability | reproducibly suppress huntingtin-mediated cell death in a dose-dependent manner |  | dose-dependent effect; also recorded: dose dependent response | improved | significant beneficial effects | corrects the rotarod deficit to near wild-type levels | significant improvement | robustly correct motor deficits (i.e. Rotarod performance) in R6/2 to near wild-type levels | no statistical differences | doesn't improve or worsen weight loss | general activity level of treated animals was normal | no statistical differences | rescued | not observed; also recorded: not cortex activation | activation of the ERK pathway in vivo; also recorded: striatal, but not cortex activation
